# Experimental data as given in US10653667B2, “Drug for preventing, treating or preventing metastasis of giant cell tumor that occurs in bone or soft parts, chondrosarcoma, or osteosarcoma, local injection for arterial embolization, and artificial bone” (NIPPON CHEMIPHAR CO., LTD, priority 2013, dated 2020).
# Several values for one entry are separate records, joined by “and”; a condition that tells them apart may be missing. Equal entries are not always repeated.
# Columns and labels:
# [1] = test system: pigmented villonodular synovitis (PVNS); experiment: Curative effect of zaltoprofen (Soleton Tablet) on PVNS patients; format: in vivo, human
# Description: Soleton Tablet 80 (generic name: zaltoprofen, 80 mg, Nippon Chemiphar) was administered to a patient with giant cell tumor of bone (GCTB), patient with giant cell tumor of tendon sheath (GCTT), or patient with pigmented villonodular synovitis (PVNS) at a dose of 3 tablets per day (one tablet was administered in the morning, at noon, and in the evening), and the tumor size was evaluated by MRI every several months.
# PVNS patients were administered with 3 tablets per day (one tablet was administered in the morning, at noon, and in the evening) of Soleton Tablet 80 (generic name; zaltoprofen, 80 mg, Nippon Chemiphar). Four weeks after the start of the administration, the tumor size was evaluated by imaging based on simple Roentgen contrast method, X-ray CT, and MRI (nuclear magnetic resonance imaging). Then, the tumors were excised from patients for whom surgical operation was possible, administration of zaltoprofen was continued at a dose of 240 mg per day (one 80 mg tablet was administered at the time of breakfast, lunch, and supper), and the tumor size was evaluated by imaging based on simple Roentgen contrast method, X-ray CT, and MRI (nuclear magnetic resonance imaging) every 16 weeks. Also for patients for whom surgical operation was difficult, administration of 240 mg zaltoprofen per day (one 80 mg tablet was administered at the time of breakfast, lunch, and supper) was continued, and the tumor size was evaluated by imaging based on simple Roentgen contrast method, X-ray CT, and MRI (nuclear magnetic resonance imaging) every 8 weeks.
# HOS cells = experiment: Suppression of proliferation of human bone sarcoma cell line HOS (CCK-8); format: cell-based; details: 72 hours
# Description: Cells of the human bone sarcoma cell line, HOS (purchased from American Type Culture Collection), were cultured in the same manner as that of Example 1 until they became sub-confluent. Zaltoprofen was added to the cells at concentrations of 25, 50, 100, 200 and 400 μM, color development was performed with Cell Counting Kit-8 (CCK-8, Dojindo) 72 hours thereafter, and absorbance was measured at 450 nm further 3 hours thereafter (FIG. 72).
# OUMS-27 cells = experiment: Proliferation of OUMS-27 cells cultured beforehand with or without GW9662; format: cell-based, human; details: GW9662 1 μM, 60 minutes beforehand
# Description: Cells of the human chondrosarcoma cell line, OUMS-27, were cultured in the same manner as that of Example 1 until they became sub-confluent, then GW9662 (Sigma Aldrich, M6191), which is an irreversible antagonist of PPARγ, was added to the cells at a final concentration of 1 μM, and the cells were cultured for 60 minutes.
# [2] = test system: cultured cells of pigmented villonodular synovitis (PVNS); experiment: Suppression of cell proliferation of PVNS cultured cells (CCK-8); format: cell-based, human; details: PVNS cells; drug at various concentrations; CCK-8 24 hours after addition
# [3] = test system: cells of giant cell tumor of tendon sheath (GCTT); experiment: Fat cell differentiation of GCTT cells (HCS LipidTOX Green); format: cell-based, human; details: zaltoprofen 400 μM, compared with control
# Description: It has been reported that PPARγ is a transcription factor indispensable for fat cell differentiation. Therefore, the GCTB cultured cells of the aforementioned case 1 were cultured on chamber cover slide glass, and when they reached confluent, zaltoprofen was added to the cells at various concentrations (10, 50, and 100 μM). From 24 hours thereafter, the cells were cultured in a fat cell differentiation-inducing medium (STREMPRO Adipogenesis Differentiation Kit, Invitrogen) for 7 to 14 days, and differentiation into fat cells was analyzed with HCS Lipid TOX Green Neutral Lipid Stain (Invitrogen) (FIGS. 8 and 9).
# It has been reported that PPARγ is a transcription factor indispensable for fat cell differentiation. Therefore, in the same manner as that of Example 3, zaltoprofen was added at a concentration of 400 μM to the cells of giant cell tumor of tendon sheath (GCTT) or cells of pigmented villonodular synovitis (PVNS), and differentiation into fat cells was analyzed (FIGS. 30 and 31). As a result, it was successfully confirmed that the positive images obtained with HCS LipidTOX Green increased in the zaltoprofen-added cells compared with the control.
# [4] = test system: giant cell tumor of bone (GCTB); experiment: Apoptosis analysis of operational excision sample of GCTB patient administered with zaltoprofen; format: in vivo, human
# Description: An operational excision sample of a person who had been administered with 3 tablets per day of the zaltoprofen tablets, Soleton Tablet 80 (generic name: zaltoprofen, 80 mg, Nippon Chemiphar) for about 28 days for pain due to the tumor, and then subjected to the operation, and an operational excision sample of giant cell tumor of bone extracted from a patient with giant cell tumor of bone not administered with zaltoprofen (case in which tumor was excised by usual surgical operation according to standard therapy) as a control were subjected to caspase 3 staining and Tunel assay, and analyzed for the presence or absence of apoptosis. The caspase 3 protein was fluorescently detected by using Anti-ACTIVE Caspase-3-Ab (Roche) ([…]) (12-4739-81) as the primary antibody, and Donkey F2 Fragment anti-Rabbit IgG PE of eBioscience as the secondary antibody. Observation was performed with a fluorescence microscope (BZ-9000) produced by Keyence (FIG. 10).
# H-EMC-SS cells [5] = details: inventors' earlier reports; cited from earlier work
# [6] = test system: cultured cells of giant cell tumor of tendon sheath (GCTT); experiment: Suppression of cell proliferation of GCTT cultured cells (CCK-8); format: cell-based, human; details: drug at various concentrations, CCK-8 24 hours after addition
# H-EMC-SS cells [7] = details: inventors' earlier reports; cited from earlier work; remark: listed apart in the source
# [8] = test system: giant cell tumor of bone (GCTB); details: patient who had taken zaltoprofen for four weeks at 240 mg per day; inventors' earlier reports; cited from earlier work
# [9] = recurrence of PVNS in the right knee (person; case b), after two months
# [10] = GCTB patient, 3 tablets per day Soleton Tablet 80 for about 28 days, vs patient not administered
structure (smiles),measurement,setting,value
CC(C(=O)O)c1ccc2c(c1)CC(=O)c1ccccc1S2 (stereo not drawn) [zaltoprofen],diameter of PVNS after taking zaltoprofen,"[1]; PVNS case a, shoulder joint, about 50 weeks, 27.7 mm before",7.9 mm
same,diameter (major axis) of PVNS after taking zaltoprofen,"[1]; PVNS case c, right knee joint, about 35 weeks, 59.5 mm before",47.2 mm and 48.0 mm
same,KPS score after taking zaltoprofen,"[1]; PVNS cases a and b, score 70 before",100
same,change of PVNS,"[1]; PVNS cases a, b, c, d, e, and f, no treatment except zaltoprofen",shrank
same,KPS score after taking zaltoprofen,"[1]; PVNS cases c and d, score 80 before",90
same,new metastasis during the taking of zaltoprofen,[1]; PVNS patients,any new metastasis of PVNS was not observed
same,recurrence during the taking of zaltoprofen after ablative operation,[1]; PVNS patients subjected to ablative operation,no recurrence of PVNS could be confirmed
same,shrinkage of PVNS in patients who took zaltoprofen,[1]; all the patients,shrinkage of PVNS could be confirmed in all the patients
same,number of cases judged to be partial response (PR),"[1]; among 11 PVNS cases for which the response rate was determined, 240 mg per day",one
same,cases in which the KPS score worsened,[1]; cases of PVNS who took zaltoprofen,no case in which the KPS score worsened
same,response judgement of all the PVNS patients who took zaltoprofen,"[1]; human, in vivo",partial response (PR) or stable disease (SD)
same,MRI imaging effect,"[1]; recurrence of PVNS in the right knee (case i), 3 tablets per day, after three months",attenuation of the MRI imaging effect
same,pain and knee-joint excursion,"[1]; recurrence of PVNS in the right knee (case i), after three months",improvement was observed
same,pain,[1]; [9],improvement of pain
same,tumor size by MRI,[1]; [9],shrinkage of tumor
same,suppression of proliferation of HOS cells,HOS cells; 400 μM zaltoprofen,about 60%
same,suppression of cell proliferation of HOS cells,"HOS cells; at 100 μM, 200 μM and 400 μM, concentration-dependent (25-400 μM tested)",suppressed
same,cell proliferation-suppressing action after preincubation with GW9662,OUMS-27 cells,reduced by GW9662
same,suppression of cell proliferation (absorbance at 450 nm),[2],cell proliferation was suppressed
same,positive images obtained with HCS LipidTOX Green (differentiation into fat cells),[3],increased
same,cells found in excised bone tissues at ablative operation,"[4]; GCTB patient who had taken zaltoprofen over four weeks at 240 mg per day, fat cell-like cells existed instead",cells characteristic to bone giant cells did not exist in the excised bone tissues
same,Tunel-positive cells in excision sample,[4]; [10],could be confirmed
same,caspase 3-positive cells in excision sample,[4]; [10],could be confirmed
same,apoptosis in H-EMC-SS cells,H-EMC-SS cells [5],induced apoptosis
same,suppression of cell proliferation (absorbance at 450 nm),[6],cell proliferation was suppressed
same,suppression of proliferation of H-EMC-SS cells,H-EMC-SS cells [7],suppress proliferation
same,giant cell tumor of bone in patient,[8],giant cell tumor of bone disappeared
